Measurements from PubChem BioAssay AID2060511 (Molecular Pharmacology Branch, DTP, NCI, 2025).
pIC50: −log10 of the molar value.

Test system: 422866-222-R5-J1-PDC spheroids with HUVEC/MSC, viability
Assay: Anticancer human tumor 422866-222-R5-J1-PDC patient-derived pancreatic adenocarcinoma cell line growth inhibition [GQUAD]
Conditions: for pIC50: curve of first compound; for viability, T/C: stronger effect = lower value
Summary of the method: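 Tumor cells were grown as complex spheroids with HUVEC endothelial cells and mesenchymal stem cells as stroma. G-quadruplex stabilizers were combined with targeted agents over half-log dilutions from near the clinical Cmax, or from 10 microM.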

[1] = second compound 0.0316 µM, first compound 0.0316 µM
[2] = second compound 0.0316 µM, first compound 0.1 µM
[3] = second compound 0.0316 µM, first compound 0.316 µM
[4] = second compound 0.0316 µM, first compound 1 µM
[5] = second compound 0.0316 µM, first compound 3.16 µM
[6] = second compound 0.0316 µM, first compound 10 µM
[7] = second compound 0.1 µM, first compound 0.0316 µM
[8] = second compound 0.1 µM, first compound 0.1 µM
[9] = second compound 0.1 µM, first compound 0.316 µM
[10] = second compound 0.1 µM, first compound 1 µM
[11] = second compound 0.1 µM, first compound 3.16 µM
[12] = second compound 0.1 µM, first compound 10 µM
[13] = second compound 0.316 µM, first compound 0.0316 µM
[14] = second compound 0.316 µM, first compound 0.1 µM
[15] = second compound 0.316 µM, first compound 0.316 µM
[16] = second compound 0.316 µM, first compound 1 µM
[17] = second compound 0.316 µM, first compound 3.16 µM
[18] = second compound 0.316 µM, first compound 10 µM
[19] = second compound 1 µM, first compound 0.0316 µM
[20] = second compound 1 µM, first compound 0.1 µM
[21] = second compound 1 µM, first compound 0.316 µM
[22] = second compound 1 µM, first compound 1 µM
[23] = second compound 1 µM, first compound 3.16 µM
[24] = second compound 1 µM, first compound 10 µM
[25] = second compound 3.16 µM, first compound 0.0316 µM
[26] = second compound 3.16 µM, first compound 0.1 µM
[27] = second compound 3.16 µM, first compound 0.316 µM
[28] = second compound 3.16 µM, first compound 1 µM
[29] = second compound 3.16 µM, first compound 3.16 µM
[30] = second compound 3.16 µM, first compound 10 µM
[31] = second compound 10 µM, first compound 0.0316 µM
[32] = second compound 10 µM, first compound 0.1 µM
[33] = second compound 10 µM, first compound 0.316 µM
[34] = second compound 10 µM, first compound 1 µM
[35] = second compound 10 µM, first compound 3.16 µM
[36] = second compound 10 µM, first compound 10 µM
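Further: spheroids exposed to compounds for seven days before reading.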
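Wherever viability, T/C is given: percent viability relative to DMSO vehicle control taken as 100%.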

**Q.** How did the pIC50 (second compound 0.0316 µM) turn out when C#Cc1c(F)ccc2cc(O)cc(-c3ncc4c(N5CC6CCC(C5)N6)nc(OCC56CCCN5CC(F)C6)nc4c3F)c12 (stereo unspecified) + Cc1[nH]c2ccc(F)cc2c1-c1nc2c3cccnc3c3ncccc3c2[nH]1 was run?
**A.** 5.66

**Q.** And the pIC50 (second compound 0.1 µM)?
**A.** 5.65

**Q.** What about the pIC50 (second compound 0.316 µM) of the same molecule?
**A.** 5.71

**Q.** What about the pIC50 (second compound 1 µM) of the same molecule?
**A.** 5.67

**Q.** What about the pIC50 (second compound 3.16 µM) of the same molecule?
**A.** 6.13

**Q.** What about the pIC50 (second compound 10 µM) of the same molecule?
**A.** 6.00

**Q.** What about the viability, T/C [1] of the same molecule?
**A.** 96.1%

**Q.** And the viability, T/C [2]?
**A.** 96.4%

**Q.** And the viability, T/C [3]?
**A.** 84.4%

**Q.** And the viability, T/C [4]?
**A.** 78%

**Q.** What about the viability, T/C [5] of the same molecule?
**A.** 30.2%

**Q.** And the viability, T/C [6]?
**A.** 43.2%

**Q.** What about the viability, T/C [7] of the same molecule?
**A.** 106%

**Q.** What about the viability, T/C [8] of the same molecule?
**A.** 92.1%

**Q.** What about the viability, T/C [9] of the same molecule?
**A.** 98.4%

**Q.** What about the viability, T/C [10] of the same molecule?
**A.** 75.3%

**Q.** What about the viability, T/C [11] of the same molecule?
**A.** 39.1%

**Q.** What about the viability, T/C [12] of the same molecule?
**A.** 33.4%

**Q.** And the viability, T/C [13]?
**A.** 106%

**Q.** What about the viability, T/C [14] of the same molecule?
**A.** 86%

**Q.** And the viability, T/C [15]?
**A.** 84%

**Q.** What about the viability, T/C [16] of the same molecule?
**A.** 64.4%

**Q.** What about the viability, T/C [17] of the same molecule?
**A.** 35%

**Q.** And the viability, T/C [18]?
**A.** 37.4%

**Q.** And the viability, T/C [19]?
**A.** 75.9%

**Q.** What about the viability, T/C [20] of the same molecule?
**A.** 98.3%

**Q.** What about the viability, T/C [21] of the same molecule?
**A.** 91.6%

**Q.** And the viability, T/C [22]?
**A.** 69%

**Q.** What about the viability, T/C [23] of the same molecule?
**A.** 40.4%

**Q.** And the viability, T/C [24]?
**A.** 40.8%

**Q.** And the viability, T/C [25]?
**A.** 87.2%

**Q.** And the viability, T/C [26]?
**A.** 75.5%

**Q.** And the viability, T/C [27]?
**A.** 70.6%

**Q.** And the viability, T/C [28]?
**A.** 42.8%

**Q.** What about the viability, T/C [29] of the same molecule?
**A.** 30.7%

**Q.** And the viability, T/C [30]?
**A.** 34.6%

**Q.** What about the viability, T/C [31] of the same molecule?
**A.** 71.3%

**Q.** And the viability, T/C [32]?
**A.** 57.6%

**Q.** What about the viability, T/C [33] of the same molecule?
**A.** 67%

**Q.** And the viability, T/C [34]?
**A.** 46.9%

**Q.** What about the viability, T/C [35] of the same molecule?
**A.** 39.4%

**Q.** What about the viability, T/C [36] of the same molecule?
**A.** 38%

**Q.** CC1COCCN1c1cc(C2(S(C)(=N)=O)CC2)nc(-c2ccnc3[nH]ccc23)n1 (stereo unspecified) + CN(C)c1ccc(Nc2c3ccc(NC(=O)CCN4CCCC4)cc3nc3cc(NC(=O)CCN4CCCC4)ccc23)cc1 was tested. Which pIC50 (second compound 0.0316 µM) did it give?
**A.** 5.45

**Q.** And the pIC50 (second compound 0.1 µM)?
**A.** 5.59

**Q.** And the pIC50 (second compound 0.316 µM)?
**A.** 5.11

**Q.** And the pIC50 (second compound 1 µM)?
**A.** 5.42

**Q.** What about the pIC50 (second compound 3.16 µM) of the same molecule?
**A.** 5.45

**Q.** What about the pIC50 (second compound 10 µM) of the same molecule?
**A.** 5.22

**Q.** And the viability, T/C [1]?
**A.** 97.6%

**Q.** What about the viability, T/C [2] of the same molecule?
**A.** 99.8%

**Q.** What about the viability, T/C [3] of the same molecule?
**A.** 97.3%

**Q.** And the viability, T/C [4]?
**A.** 88.5%

**Q.** What about the viability, T/C [5] of the same molecule?
**A.** 51%

**Q.** What about the viability, T/C [6] of the same molecule?
**A.** 41.1%

**Q.** What about the viability, T/C [7] of the same molecule?
**A.** 102%

**Q.** What about the viability, T/C [8] of the same molecule?
**A.** 98.3%

**Q.** And the viability, T/C [9]?
**A.** 102%

**Q.** What about the viability, T/C [10] of the same molecule?
**A.** 78.9%

**Q.** And the viability, T/C [11]?
**A.** 44.6%

**Q.** What about the viability, T/C [12] of the same molecule?
**A.** 37.9%

**Q.** What about the viability, T/C [13] of the same molecule?
**A.** 92.2%

**Q.** What about the viability, T/C [14] of the same molecule?
**A.** 86.2%

**Q.** And the viability, T/C [15]?
**A.** 88.4%

**Q.** And the viability, T/C [16]?
**A.** 81%

**Q.** What about the viability, T/C [17] of the same molecule?
**A.** 60.3%

**Q.** What about the viability, T/C [18] of the same molecule?
**A.** 47.1%

**Q.** And the viability, T/C [19]?
**A.** 73.7%

**Q.** And the viability, T/C [20]?
**A.** 76.6%

**Q.** What about the viability, T/C [21] of the same molecule?
**A.** 100%

**Q.** What about the viability, T/C [22] of the same molecule?
**A.** 72.7%

**Q.** And the viability, T/C [23]?
**A.** 54.2%

**Q.** What about the viability, T/C [24] of the same molecule?
**A.** 31.9%

**Q.** And the viability, T/C [25]?
**A.** 84.5%

**Q.** And the viability, T/C [26]?
**A.** 76.5%

**Q.** And the viability, T/C [27]?
**A.** 86%

**Q.** What about the viability, T/C [28] of the same molecule?
**A.** 72%

**Q.** What about the viability, T/C [29] of the same molecule?
**A.** 51.4%

**Q.** And the viability, T/C [30]?
**A.** 43.5%

**Q.** What about the viability, T/C [31] of the same molecule?
**A.** 79.5%

**Q.** And the viability, T/C [32]?
**A.** 77%

**Q.** And the viability, T/C [33]?
**A.** 93%

**Q.** What about the viability, T/C [34] of the same molecule?
**A.** 73.6%

**Q.** And the viability, T/C [35]?
**A.** 61.9%

**Q.** What about the viability, T/C [36] of the same molecule?
**A.** 41.2%

**Q.** What does the source list for Cc1[nH]c2ccccc2c1CCNCc1ccc(/C=C/C(=O)NO)cc1 + Cc1[nH]c2ccc(F)cc2c1-c1nc2c3cccnc3c3ncccc3c2[nH]1?
**A.** pIC50 (second compound 0.0316 µM): < 6.50; pIC50 (second compound 0.1 µM): < 6.50; pIC50 (second compound 0.316 µM): < 6.50; pIC50 (second compound 1 µM): < 6.50; pIC50 (second compound 3.16 µM): < 6.50; pIC50 (second compound 10 µM): < 6.50; viability, T/C (second compound 0.0316 µM, first compound 0.000999 µM): 113%; viability, T/C (second compound 0.0316 µM, first compound 0.00316 µM): 92.7%; viability, T/C (second compound 0.0316 µM, first compound 0.00999 µM): 110%; viability, T/C [1]: 98.6%; viability, T/C (second compound 0.0316 µM, first compound 0.0999 µM): 101%; viability, T/C [3]: 102%; viability, T/C (second compound 0.1 µM, first compound 0.000999 µM): 127%; viability, T/C (second compound 0.1 µM, first compound 0.00316 µM): 108%; viability, T/C (second compound 0.1 µM, first compound 0.00999 µM): 102%; viability, T/C [7]: 93%; viability, T/C (second compound 0.1 µM, first compound 0.0999 µM): 111%; viability, T/C [9]: 94%; viability, T/C (second compound 0.316 µM, first compound 0.000999 µM): 96.6%; viability, T/C (second compound 0.316 µM, first compound 0.00316 µM): 97.2%; viability, T/C (second compound 0.316 µM, first compound 0.00999 µM): 121%; viability, T/C [13]: 105%; viability, T/C (second compound 0.316 µM, first compound 0.0999 µM): 115%; viability, T/C [15]: 98.9%; viability, T/C (second compound 1 µM, first compound 0.000999 µM): 74.5%; viability, T/C (second compound 1 µM, first compound 0.00316 µM): 93.9%; viability, T/C (second compound 1 µM, first compound 0.00999 µM): 114%; viability, T/C [19]: 112%; viability, T/C (second compound 1 µM, first compound 0.0999 µM): 103%; viability, T/C [21]: 111%; viability, T/C (second compound 3.16 µM, first compound 0.000999 µM): 64.2%; viability, T/C (second compound 3.16 µM, first compound 0.00316 µM): 73.7%; viability, T/C (second compound 3.16 µM, first compound 0.00999 µM): 68.2%; viability, T/C [25]: 73.9%; viability, T/C (second compound 3.16 µM, first compound 0.0999 µM): 75.2%; viability, T/C [27]: 78.9%; viability, T/C (second compound 10 µM, first compound 0.000999 µM): 52.1%; viability, T/C (second compound 10 µM, first compound 0.00316 µM): 66.2%; viability, T/C (second compound 10 µM, first compound 0.00999 µM): 64.7%; viability, T/C [31]: 65.7%; viability, T/C (second compound 10 µM, first compound 0.0999 µM): 61.1%; viability, T/C [33]: 67.6%
